{"source": "patent US9717737B2", "about": "“Vacuolin-1 as an inhibitor of autophagy and endosomal trafficking and the use thereof for inhibiting tumor progression” (The University of Hong Kong, priority 2014, dated 2017)", "key": {"[1]": {"system": "HeLa cells", "assay": "DQ-BSA-green degradation assay (flow cytometry)", "format": "cell-based", "conditions": "1 μM", "method": "(§1) Since the increase of lysosomal pH normally compromises the lysosomal activity, it was assessed whether vacuolin-1 affects the general lysosomal functions to inhibit autophagy maturation. […] Next, an epidermal growth factor receptor (EGFR) degradation assay was performed to examine whether vacuolin-1 affects the general endosomal-lysosomal pathway. In this assay, HeLa cells were treated with EGF in the presence or absence of vacuolin-1. After EGF binds to its receptors (EGFR), the receptor complex undergoes endocytosis and is targeted tolysosomes for degradation. […] Similarly, a DQ-BSA-green degradation assay was applied to measure the general endosomal-lysosomal degradation. DQ-BSA-green is a BSA labeled with a self-quenching fluorescent dye. After DQ-BSA-green is delivered to lysosomes via endocytosis, it is hydrolyzed into single dye-labeled peptides by lysosomal proteases, thereby relieving self-quenching and the fluorescence can subsequently be monitored by flow cytometry."}, "[2]": {"system": "CNE-1 and HONE-1 cells", "assay": "Migration and invasiveness of nasopharyngeal carcinoma cells", "format": "cell-based, human", "method": "(§2) Although CQ has already been applied to treat a wide spectrum of human cancers, CQ induces ocular or renal toxicity and easily triggers drug resistance (Kimura et al., 2013). […] We first investigated the anti-tumor effects of vacuolin-1 in two nasopharyngeal carcinoma cell lines, CNE-1 and HONE-1. […] Alternatively, colony formation assay was performed to assess whether vacuolin-1 affects the ability of a single tumor cell to grow into a colony. […] We subsequently performed wound healing assay to assess whether vacuolin-1 affects the migration of tumor cells. […] Obviously, vacuolin-1 is an efficient anti-tumor agent in vitro."}, "[3]": {"system": "human lung cancer stem cells (hLCSCs)", "assay": "Colony formation of hLCSCs", "format": "cell-based", "conditions": ">10 μM", "description": "(§3) Cancer stem cells (CSCs), a subpopulation of cells within tumors, actually drive tumor growth and recurrence. CSCs are resistant to many current cancer treatments, including chemo- and radiation therapy, thus they can survive these therapy to regenerate new tumors. […] Therefore, it is of great interest to assess the anti-tumor effects of vacuolin-1 on CSCs."}, "[4]": {"system": "HeLa cells", "assay": "Western blot analyses of LC3 and p62", "format": "cell-based", "method": "(§4) Western blot and Immunofluorescence staining analyses—Both assays were performed as described previously (Lu et al., 2013)."}, "[5]": {"system": "HeLa, PC3, HepG2, MCF7, and A549 cells", "format": "cell-based", "method": "MTT cell proliferation assay—Cells were treated in four replicates and seeded into 96-well plate. Following drug treatment, MTT solution of 20 μl for every 100 μl medium was added to wells and incubated for 2 hours, followed by the addition of 150 μL of the DMSO solution to each well. The final reaction product, a purple formazan solution, was detected by a microplate reader (Techan infinite M200) for absorbance at a wavelength of 570 nm and a reference wavelength of 630 nm."}, "[6]": {"system": "CNE-1 and HONE-1 cells", "assay": "Colony formation assay, nasopharyngeal carcinoma cells", "format": "cell-based, human", "conditions": "CNE-1 or HONE-1 cells", "method": "as §2"}, "[7]": {"biological_target": "T1, Rab5 (Homo sapiens, UniProt P20339)", "T1 construct": "results of a GST-tagged Rabaptin5 pull-down assay in HeLa cells showing active Rab5 in cells treated with vacuolin-1 (1 μM); endogenous in cells; host or cells: HeLa cells", "T1 sequence (P20339 1-215)": "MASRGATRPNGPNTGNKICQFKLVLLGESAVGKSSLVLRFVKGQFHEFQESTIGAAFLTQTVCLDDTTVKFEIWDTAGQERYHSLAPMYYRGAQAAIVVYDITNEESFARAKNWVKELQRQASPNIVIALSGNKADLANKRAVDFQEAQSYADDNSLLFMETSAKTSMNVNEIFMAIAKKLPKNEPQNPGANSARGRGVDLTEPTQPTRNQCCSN", "assay": "GST-tagged Rabaptin5 pull-down assay for active Rab5", "format": "cell-based", "conditions": "HeLa cells, 1 μM", "method": "Glutathione S-Transferase (GST) Pull-Down Assay—Cells were collected and lysed in an ice-cold EBC lysis buffer described previously. Lysates were clarified by centrifugation at 13,000 g for 10 min at 4° C., and equal amount of protein (500 μg) from each supernatant was incubated with 30 μl of GST-RSBD bound to the 30 μl glutathione—Sepharose beads for 1 h at 4° C. on a rotating mixer. The beads was subsequently washed and resuspended in the standard SDS-sample buffer, boiled and subjected to SDS-PAGE (15% gel), followed by immunoblot analysis with the anti-Rab5 mAb."}, "[8]": {"system": "LCSC tumor xenograft", "assay": "LCSC tumor xenograft in BALB/c nude mice", "format": "in vivo", "method": "(§5) We first assessed the ability of vacuolin-1 to suppress LCSC tumor xenograft in BALB/c nude mice. Briefly, 1×10^4 lung cancer stem cells (LCSCs, 3rd generation) were suspended in Matrigel (BD Biosciences) at a ratio of 1:1, and 200 iL of cells was subcutaneously injected into the back of nude mice. The tumor volume was measured every five days after injection and calculated from the formula: length×width×depth×π/6. Mice were removed from the study when their tumor volumes exceed 2000 mm^3 (FIG. 18A). […] Also, we tested the acute toxicity of vacuolin-1 in mice."}, "[9]": {"system": "human lung cancer stem cells (hLCSCs)", "assay": "Tumor sphere formation of hLCSCs", "format": "cell-based", "conditions": ">10 μM", "description": "as §3"}, "[10]": {"assay": "Acute toxicity in mice", "format": "in vivo", "conditions": "young adult mice", "method": "as §5"}, "[11]": {"system": "HeLa cells", "assay": "EGFR degradation assay", "format": "cell-based", "conditions": "HeLa cells treated with EGF", "method": "as §1"}, "[12]": {"system": "CNE-1 and HONE-1 cells", "assay": "Wound healing assay", "format": "cell-based, human", "method": "as §2"}, "[13]": {"system": "HeLa cells", "assay": "Cathepsin L processing (western blot)", "format": "cell-based", "conditions": "1 μM"}, "[14]": {"system": "human cancer cell lines", "assay": "Combination with chemotherapy drugs in human cancer cell lines (FIG. 13)", "format": "cell-based"}, "[15]": {"system": "HeLa cells", "assay": "Immunofluorescence staining of GFP-LC3 puncta and RFP-Lamp1", "format": "cell-based", "conditions": "1 μM", "method": "as §4"}, "[16]": {"conditions": "nude mice, intratumoral injection 5 mg/kg twice a week"}}}
{"compound": "Ic1cccc(/C=N/Nc2nc(N3CCOCC3)nc(N(c3ccccc3)c3ccccc3)n2)c1", "note": "[vacuolin-1]", "values": [{"measurement": "degradation of DQ-BSA-green by lysosomes", "setting": "[1]", "value": "markedly inhibited the degradation of BSA"}, {"measurement": "migration", "setting": "[2]; FIG. 16D", "value": "markedly inhibited"}, {"measurement": "invasiveness", "setting": "[2]; FIG. 16E", "value": "markedly inhibited"}, {"measurement": "colony formation of hLCSCs", "setting": "[3]", "value": "almost completely inhibited"}, {"measurement": "fusion block between autophagosomes and lysosomes after removal of compound (reversibility)", "setting": "[4]; 3 hours after removal from the medium, HeLa cells, 1 μM", "value": "completely relieved"}, {"measurement": "potency in suppressing autophagy relative to CQ", "setting": "[4]; HeLa and PC3 cells, 6 hours, LC3 and p62 western blot", "value": "at least ten times more potent than CQ"}, {"measurement": "lipidated LC3-II level", "setting": "[4]; HeLa cells, vacuolin-1 1 μM", "value": "markedly increased"}, {"measurement": "p62 level", "setting": "[4]; HeLa cells, vacuolin-1 1 μM", "value": "accumulated"}, {"measurement": "cell toxicity (MTT cell viability)", "setting": "[5]", "value": "much less cell toxicity than CQ"}, {"measurement": "size and number of colonies generated from single cell", "setting": "[6]", "value": "dramatically reduced the size and number of colonies"}, {"measurement": "Rab5 activation (Rab5-GTP pull-down)", "setting": "[7]", "value": "markedly activated Rab5"}, {"measurement": "autophagy in tumors", "setting": "[8]; LCSC xenograft, vacuolin-1 treatment", "value": "markedly inhibited autophagy"}, {"measurement": "tumor growth of LCSC xenograft", "setting": "[8]; [16]", "value": "markedly inhibited tumor growth"}, {"measurement": "weight gain of xenograft mice", "setting": "[8]; [16]", "value": "little effects"}, {"measurement": "tumor sphere formation of hLCSCs", "setting": "[9]", "value": "almost completely inhibited"}, {"measurement": "activity and weight gain compared to control", "setting": "[10]; intraperitoneal 250 mg/kg, after two weeks", "value": "normal activity and weight gain"}, {"measurement": "acute toxicity", "setting": "[10]; intraperitoneal injection 250 mg/kg", "value": "little acute toxicity"}, {"measurement": "EGF-triggered EGFR degradation", "setting": "[11]", "value": "inhibited EGF-triggered EGFR degradation"}, {"measurement": "migration of tumor cells (wound healing)", "setting": "[12]", "value": "efficiently suppressed the migration"}, {"measurement": "levels of immature form of cathepsin L", "setting": "[13]", "value": "markedly increase"}, {"measurement": "processing of cathepsin L into its mature form", "setting": "[13]", "value": "not affected"}, {"measurement": "colony formation efficiency of cancer cells, combination with chemotherapy drugs", "setting": "[14]; FIG. 13B", "value": "greatly decreases"}, {"measurement": "anti-tumor effects of chemotherapy drugs in combination", "setting": "[14]; human cancer cell lines, FIG. 13A", "value": "potently enhances"}, {"measurement": "GFP-LC3 puncta", "setting": "[15]", "value": "greatly increased"}, {"measurement": "co-localization of GFP-LC3 puncta with Lamp1", "setting": "[15]", "value": "did not co-localize with Lamp1"}]}
